Our source for the IC50 values is patent US20240360151A1 (SANOFI, priority 2023, published 2024).

Counter-ions that a name gives are not always drawn.

Assay [1] deals with T1, NLRP3 inflammasome (Homo sapiens, UniProt Q96P20).
T1 construct: endogenous in cells; host or cells: THP-1 monocytic cells
Description: IL-1β secretion assay (NLRP3 IC50) in LPS-primed, nigericin-activated THP-1 cells, HTRF. It counts as cell-based. Conditions: monocytic THP-1 cells; LPS 10 ng/mL 3 h priming, then compound + nigericin 10 μM 2 h; relative IC50, 10 concentrations, geometric mean. An outline of the steps: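 IL-1β in supernatant read by HTRF after 2 h co-incubation of compound (0.1% DMSO, 10 concentrations, 1:3 series) with nigericin at 10 μM final, following 3 h LPS (10 ng/mL) priming of THP-1 monocytes at 37° C. Inhibition normalised to unactivated and no-compound controls; geometric-mean relative IC50 from 4-parameter logistic model.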
A general note: In TR-FRET formats the signal depends on donor and acceptor labels being close together.

The subject of assay [2] is NF-kB pathway (TNF-α secretion by THP-1 cells). The assay is described as follows: TNF-α secretion assay in LPS-stimulated THP-1 cells, Lumit immunoassay. Format: cell-based, human. To be noted: Homo sapiens, THP-1, 3 h, monocytic THP-1 cells, LPS 10 ng/mL, relative IC50, 10 concentrations, geometric mean. The method, boiled down:
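TNF-α release was quantified directly in the cell plate by Lumit immunoassay after a 3-h, 10 ng/mL LPS trigger of compound-treated THP-1 cells (RPMI, 5% FBS). Percent inhibition versus no-compound and unstimulated controls fed a 4-parameter logistic fit over 10 concentrations, giving geometric-mean relative IC50.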

T1 sequence (Q96P20 whole entry): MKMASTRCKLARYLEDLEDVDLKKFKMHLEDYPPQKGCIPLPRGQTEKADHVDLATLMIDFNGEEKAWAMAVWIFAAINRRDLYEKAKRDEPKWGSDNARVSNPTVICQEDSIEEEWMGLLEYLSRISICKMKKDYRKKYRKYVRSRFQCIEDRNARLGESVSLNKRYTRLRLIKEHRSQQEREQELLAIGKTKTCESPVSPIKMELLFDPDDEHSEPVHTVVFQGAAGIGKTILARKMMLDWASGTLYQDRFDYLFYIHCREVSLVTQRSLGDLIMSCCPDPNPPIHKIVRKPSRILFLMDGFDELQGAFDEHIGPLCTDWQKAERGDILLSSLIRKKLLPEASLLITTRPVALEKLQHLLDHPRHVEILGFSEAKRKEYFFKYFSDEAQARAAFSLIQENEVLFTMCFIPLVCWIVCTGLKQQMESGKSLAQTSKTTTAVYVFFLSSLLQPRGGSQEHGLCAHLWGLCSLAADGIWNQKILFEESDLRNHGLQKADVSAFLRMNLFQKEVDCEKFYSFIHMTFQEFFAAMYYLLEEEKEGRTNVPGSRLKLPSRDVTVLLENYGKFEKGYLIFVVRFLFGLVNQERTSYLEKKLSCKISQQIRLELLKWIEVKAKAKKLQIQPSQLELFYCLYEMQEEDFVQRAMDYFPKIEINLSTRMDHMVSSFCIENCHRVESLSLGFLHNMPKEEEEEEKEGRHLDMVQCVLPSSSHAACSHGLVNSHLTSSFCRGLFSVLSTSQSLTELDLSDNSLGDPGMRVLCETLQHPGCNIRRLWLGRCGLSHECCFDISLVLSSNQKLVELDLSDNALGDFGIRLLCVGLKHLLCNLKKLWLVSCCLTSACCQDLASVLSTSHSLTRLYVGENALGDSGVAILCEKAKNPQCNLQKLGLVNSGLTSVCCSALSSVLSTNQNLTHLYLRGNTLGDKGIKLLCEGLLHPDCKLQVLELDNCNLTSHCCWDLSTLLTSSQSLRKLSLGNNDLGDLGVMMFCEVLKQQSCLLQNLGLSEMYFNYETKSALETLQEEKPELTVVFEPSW

Consider `Cc1cc(C(F)(F)F)cc(O)c1-c1ccc(N2C[C@@H](CO)O[C@H](CO)C2)nn1` [Example 199, 2-[6-[(2S,6S)-2,6-bis(hydroxymethyl)morpholin-4-yl]pyridazin-3-yl]-3-methyl-5-(trifluoromethyl)phenol], for which the results for the half-inhibitory concentration (IC50) in assay [1] and in assay [2] were 4 nM and more than 10000 nM, respectively.
For the compound `Cc1cc(C)c(-c2cc(C(F)F)c(N3CCO[C@@H]4CCN(C)C[C@@H]43)nn2)c(O)c1` [Example 291, 2-[6-[(4aS,8aR)-6-methyl-3,4a,5,7,8,8a-hexahydro-2H-pyrido[4,3-b][1,4]oxazin-4-yl]-5-(difluoromethyl)pyridazin-3-yl]-3,5-dimethyl-phenol], the IC50 in assay [1] was 1 nM; in assay [2] it was more than 10000 nM.
As for `CCN1CC[C@H]2OCCN(c3cc(C)c(-c4ccc(C(F)(F)F)cc4O)nn3)[C@H]2C1` [Example 436, 2-[6-[(4aS,8aR)-6-ethyl-3,4a,5,7,8,8a-hexahydro-2H-pyrido[4,3-b][1,4]oxazin-4-yl]-4-methyl-pyridazin-3-yl]-5-(trifluoromethyl)phenol], the IC50 was 2 nM in assay [1] and more than 10000 nM in assay [2].
With `OC[C@@H]1CN(c2cc(C(F)F)c(-c3ccc(C(F)(F)F)cc3O)nn2)CCO1` [Example 247, 2-[4-(difluoromethyl)-6-[(2S)-2-(hydroxymethyl)morpholin-4-yl]pyridazin-3-yl]-5-(trifluoromethyl)phenol], the results for the IC50 in assay [1] and in assay [2] were 168 nM and more than 10000 nM, respectively.
The corresponding values for `NC[C@H]1CCN(c2ccc(-c3c(O)cc(Cl)cc3Cl)nn2)C1` [Example 25, 2-[6-[(3R)-3-(aminomethyl)pyrrolidin-1-yl]pyridazin-3-yl]-3,5-dichloro-phenol] are 109 nM and more than 10000 nM.
Regarding `Cc1cc(C(F)(F)F)cc(O)c1-c1cc(C#N)c(N2CCO[C@H](CO)C2)nn1` [Example 159, 3-[(2S)-2-(hydroxymethyl)morpholin-4-yl]-6-[2-hydroxy-6-methyl-4-(trifluoromethyl)phenyl]pyridazine-4-carbonitrile], the IC50 in assay [1] is 43 nM; in assay [2], more than 10000 nM.
Consider `CCN1CC[C@H]2CCN(c3ccc(-c4c(C)cc(C(F)(F)F)cc4O)nn3)[C@H]2C1` (stereo in doubt) [Example 406, 2-[6-[(3aS,7aR)-6-ethyl-3,3a,4,5,7,7a-hexahydro-2H-pyrrolo[2,3-c]pyridin-1-yl]pyridazin-3-yl]-3-methyl-5-(trifluoromethyl)phenol], for which the half-maximal inhibitory concentration (IC50) in assay [1] is 78 nM; in assay [2] it was more than 10000 nM.
As for `OC[C@@H]1CN(c2cc(C(F)(F)F)c(-c3ccc(Cl)cc3O)nn2)CCO1` [Example 160, 5-chloro-2-[6-[(2S)-2-(hydroxymethyl)morpholin-4-yl]-4-(trifluoromethyl)pyridazin-3-yl]phenol], the half-inhibitory concentration (IC50) in assay [1] was 171 nM; in assay [2], more than 10000 nM.
As to `Cc1cc(C(F)(F)F)cc(O)c1-c1ccc(N2CCO[C@H](CO)C2)nn1` [Example 16, 2-[6-[(2S)-2-(hydroxymethyl)morpholin-4-yl]pyridazin-3-yl]-3-methyl-5-(trifluoromethyl)phenol], the IC50 in assay [1] was 25 nM; in assay [2], more than 10000 nM.
As for `Cc1cc(C(F)F)cc(O)c1-c1ccc(N2CCO[C@H](CO)C2)nn1` [Example 134, 5-(difluoromethyl)-2-[6-[(2S)-2-(hydroxymethyl)morpholin-4-yl]pyridazin-3-yl]-3-methyl-phenol], the IC50 in assay [1] was 71 nM; in assay [2], more than 10000 nM.
Take `Cc1cc(Cl)cc(O)c1-c1ccc(N2CCO[C@@H]3CCN(C)C[C@@H]32)nn1` (single isomer, unassigned) [Example 321]: the IC50 in assay [1] was 1 nM; in assay [2], more than 10000 nM.
Take `Cc1cc(C)c(-c2ccc(N3CCC(O)CC3)nn2)c(O)c1` [Example 1, 1-[6-(2-hydroxy-4,6-dimethyl-phenyl)pyridazin-3-yl]piperidin-4-ol]: the IC50 is 407 nM in assay [1] and more than 10000 nM in assay [2].
In the case of `Cc1ccc(-c2nnc(N3CCO[C@H](CO)C3)cc2C(F)(F)F)c(O)c1` [Example 155, 2-[6-[(2S)-2-(hydroxymethyl)morpholin-4-yl]-4-(trifluoromethyl)pyridazin-3-yl]-5-methyl-phenol], the IC50 in assay [1] is 461 nM; in assay [2], more than 10000 nM.
Turning to `Oc1cc(Cl)cc(Cl)c1-c1ccc(N2CC3(CC(O)C3)C2)nn1` [Example 46, 2-[6-(2,4-dichloro-6-hydroxy-phenyl)pyridazin-3-yl]-2-azaspiro[3.3]heptan-6-ol], the results for the IC50 in assay [1] and in assay [2] were 389 nM and more than 10000 nM, respectively.
`Cc1cc(C(F)(F)F)cc(O)c1-c1ccc(N2C[C@@H](CO)O[C@@H](CO)C2)nn1` [Example 178, 2-[6-[(2R,6S)-2,6-bis(hydroxymethyl)morpholin-4-yl]pyridazin-3-yl]-3-methyl-5-(trifluoromethyl)phenol]: the IC50 is 7 nM in assay [1] and more than 10000 nM in assay [2].
The matching figures for `Cc1cc(C)c(-c2ccc(N3CCO[C@@H]4CCN(C)C[C@@H]43)nn2)c(O)c1` [Example 311, 2-[6-[(4aS,8aR)-6-methyl-3,4a,5,7,8,8a-hexahydro-2H-pyrido[4,3-b][1,4]oxazin-4-yl]pyridazin-3-yl]-3,5-dimethyl-phenol]: 2 nM and more than 10000 nM.
For `Cc1cc(C)c(-c2ccc(N3CCCc4cc(O)ccc43)nn2)c(O)c1` [Example 230, 1-[6-(2-hydroxy-4,6-dimethyl-phenyl)pyridazin-3-yl]-3,4-dihydro-2H-quinolin-6-ol], the results for the concentration for half-maximal inhibition (IC50) in assay [1] and in assay [2] were 556 nM and 9140 nM, respectively.
As for `Cc1cc(C)c(-c2ccc(N3CCO[C@@H](CN)C3)nn2)c(O)c1` [Example 87, 2-[6-[(2S)-2-(aminomethyl)morpholin-4-yl]pyridazin-3-yl]-3,5-dimethyl-phenol; 2,2,2-trifluoroacetic acid], the IC50 in assay [1] was 311 nM; in assay [2], more than 10000 nM.
The matching figures for `Cc1cc(C)c(-c2ccc(N3CCO[C@@H]4CCN(C(C)C)C[C@@H]43)nn2)c(O)c1` [Example 433, 2-[6-[(4aS,8aR)-6-isopropyl-3,4a,5,7,8,8a-hexahydro-2H-pyrido[4,3-b][1,4]oxazin-4-yl]pyridazin-3-yl]-3,5-dimethyl-phenol]: 2 nM and more than 10000 nM.
With `CC(=O)NC[C@@H]1CCCN(c2ccc(-c3c(C)cc(Cl)cc3O)nn2)C1` [Example 211, N-[[(3S)-1-[6-(4-chloro-2-hydroxy-6-methyl-phenyl)pyridazin-3-yl]-3-piperidyl]methyl]acetamide], the figures for the IC50 in assay [1] and in assay [2] were 34 nM and more than 10000 nM, respectively.
`Cc1cc(C)c(-c2ccc(N3CCc4c(O)cccc43)nn2)c(O)c1` [Example 240, 1-[6-(2-hydroxy-4,6-dimethyl-phenyl)pyridazin-3-yl]indolin-4-ol]: the figures for the IC50 in assay [1] and in assay [2] were 421 nM and more than 10000 nM, respectively.
With `Cc1cc(O)c(-c2nnc(N3CCO[C@H](CO)C3)cc2C)c(Cl)c1` [Example 177, 3-chloro-2-[6-[(2S)-2-(hydroxymethyl)morpholin-4-yl]-4-methyl-pyridazin-3-yl]-5-methyl-phenol], the IC50 in assay [1] is 91 nM; in assay [2] it was 7380 nM.
The corresponding values for `Cc1ccc(-c2nnc(N3CC[C@H]4CCN(C)C[C@H]43)cc2C)c(O)c1` (single isomer, unassigned) [Example 375] are 0.4 nM and more than 10000 nM.
`OC[C@@H]1CN(c2ccc(-c3c(O)cccc3Cl)nn2)CCO1` [Example 48, 3-chloro-2-[6-[(2S)-2-(hydroxymethyl)morpholin-4-yl]pyridazin-3-yl]phenol]: the IC50 was 386 nM in assay [1] and more than 10000 nM in assay [2].
The corresponding values for `Cc1cc(C(F)(F)F)cc(O)c1-c1ccc(N2CC[C@H]3CNC[C@@H]3C2=O)nn1` (racemic) [Example 269, rac-(3aS,7aS)-5-[6-[2-hydroxy-6-methyl-4-(trifluoromethyl)phenyl]pyridazin-3-yl]-2,3,3a,6,7,7a-hexahydro-1H-pyrrolo[3,4-c]pyridin-4-one, hydrochloride] are 404 nM and more than 10000 nM.
As to `Cc1cc(C(F)(F)F)cc(O)c1-c1ccc(N2CCO[C@@H](CO)C2)nn1` [Example 266, 2-[6-[(2R)-2-(hydroxymethyl)morpholin-4-yl]pyridazin-3-yl]-3-methyl-5-(trifluoromethyl)phenol], the IC50 in assay [1] is 73 nM; in assay [2] it was more than 10000 nM.
Regarding `CC(=O)N1CC[C@H]2OCCN(c3cc(C(F)F)c(-c4ccc(C)cc4O)nn3)[C@H]2C1` [Example 387, 1-[(4aS,8aR)-4-[5-(difluoromethyl)-6-(2-hydroxy-4-methyl-phenyl)pyridazin-3-yl]-3,4a,5,7,8,8a-hexahydro-2H-pyrido[4,3-b][1,4]oxazin-6-yl]ethanone], the IC50 in assay [1] is 31 nM; in assay [2] it was more than 10000 nM.
Take `Cc1cc(C)c(-c2ccc(N3CCc4c(CO)cccc43)nn2)c(O)c1` [Example 241, 2-[6-[4-(hydroxymethyl)indolin-1-yl]pyridazin-3-yl]-3,5-dimethyl-phenol]: the IC50 in assay [1] is 250 nM; in assay [2], more than 10000 nM.
On to `Cc1cccc(O)c1-c1ccc(N2CC[C@H]3CCN(C)C[C@H]32)nn1` (single isomer, unassigned) [Example 416], for which the IC50 in assay [1] was 1 nM; in assay [2], more than 10000 nM.
For the compound `Cc1cc(C(F)(F)F)cc(O)c1-c1ccc(N2C[C@@H](O)CC2=O)nn1` [Example 62, (4S)-4-hydroxy-1-[6-[2-hydroxy-6-methyl-4-(trifluoromethyl)phenyl]pyridazin-3-yl]pyrrolidin-2-one], the values for the IC50 in assay [1] and in assay [2] were 52 nM and more than 10000 nM, respectively.

The IC50 is the concentration needed to halve the response being measured.
